Laboratory results: patent US8486918B2, “Phenyl oxadiazole derivatives as sphingosine 1-phosphate (S1P) receptor” (Allergan, Inc., priority 2010, dated 2013)

target: T1, human S1P1 receptor (Homo sapiens, UniProt P21453); assay: GTP γ35S binding assay for S1P1 activity; assay type: biochemical; settings: membranes of cells stably expressing the S1P1 receptor, test concentrations 0.08 to 5,000 nM
T1 construct: expressed in transfected cells; membranes used
Experimental: Compounds were synthesized and tested for S1P1 activity using the GTP γ^35S binding assay. These compounds may be assessed for their ability to activate or block activation of the human S1P1 receptor in cells stably expressing the S1P1 receptor.
GTP γ^35S binding was measured in the medium containing (mM) HEPES 25, pH 7.4, MgCl2 10, NaCl 100, dithitothreitol 0.5, digitonin 0.003%, 0.2 nM GTP γ^35S, and 5 μg membrane protein in a volume of 150 μl. Test compounds were included in the concentration range from 0.08 to 5,000 nM unless indicated otherwise. Membranes were incubated with 100 μM 5′-adenylylimmidodiphosphate for 30 min, and subsequently with 10 μM GDP for 10 min on ice. Drug solutions and membrane were mixed, and then reactions were initiated by adding GTP γ^35S and continued for 30 min at 25° C. Reaction mixtures were filtered over Whatman GF/B filters under vacuum, and washed three times with 3 mL of ice-cold buffer (HEPES 25, pH7.4, MgCl2 10 and NaCl 100). Filters were dried and mixed with scintillant, and counted for ^35S activity using a β-counter. Agonist-induced GTP γ^35S binding was obtained by subtracting that in the absence of agonist. Binding data were analyzed using a non-linear regression method. In case of antagonist assay, the reaction mixture contained 10 nM S1P in the presence of test antagonist at concentrations ranging from 0.08 to 5000 nM.

T1 sequence (P21453 whole entry): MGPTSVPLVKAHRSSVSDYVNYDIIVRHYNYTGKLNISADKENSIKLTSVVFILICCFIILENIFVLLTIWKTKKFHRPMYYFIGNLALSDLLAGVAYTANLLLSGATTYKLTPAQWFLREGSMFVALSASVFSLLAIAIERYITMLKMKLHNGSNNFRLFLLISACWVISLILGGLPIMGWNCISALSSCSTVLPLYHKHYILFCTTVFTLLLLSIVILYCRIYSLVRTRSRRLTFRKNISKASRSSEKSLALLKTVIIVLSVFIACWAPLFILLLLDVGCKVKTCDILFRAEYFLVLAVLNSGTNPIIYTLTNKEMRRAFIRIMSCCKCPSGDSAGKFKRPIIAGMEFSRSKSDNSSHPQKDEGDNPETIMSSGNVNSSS

Row | SMILES | EC50 [nM]
1 | CCCc1cccc(OC(c2cccc(Cl)c2)c2nc(-c3ccc(CNCCC(=O)O)cc3)no2)c1 (centres unmarked) [3-[(4-{5-[(3-chlorophenyl)(3-propylphenoxy)methyl]-1,2,4-oxadiazol-3-yl}benzyl)amino]propanoic acid] | 2100
2 | O=C(O)CCNCc1ccc(-c2noc(C(Oc3cccc(Cl)c3)c3ccccc3Cl)n2)cc1 (centres unmarked) [Compound 2, 3-[(4-{5-[(3-chlorophenoxy)(2-chlorophenyl)methyl]-1,2,4-oxadiazol-3-yl}benzyl)amino]propanoic acid] | 2120
3 | Cc1ccc(SC(c2nc(-c3ccc(CNCCC(=O)O)cc3)no2)c2ccccc2Cl)cc1C (centres unmarked) [Compound 5, 3-{[4-(5-{(2-chlorophenyl)[(3,4-dimethylphenyl)thio]methyl}-1,2,4-oxadiazol-3-yI)benzyl]amino}propanoic acid] | 146
4 | COc1ccc(OC(c2nc(-c3ccc(CNCCC(=O)O)cc3)no2)c2ccccc2Cl)cc1C (centres unmarked) [Compound 10, 3-[(4-{5-[(2-chlorophenyl)(4-methoxy-3-methylphenoxy)methyl]-1,2,4-oxadiazol-3-yl}benzyl)amino]propanoic acid] | 209
5 | Cc1ccc(SC(c2cccc(Cl)c2)c2nc(-c3cc(C)c(OCC(O)CO)c(C)c3)no2)cc1C (centres unmarked) [Compound 11, 3-[4-(5-{(3-chlorophenyl)[(3,4-dimethylphenyl)thio]methyl}-1,2,4-oxadiazol-3-yl)-2,6-dimethylphenoxy]propane-1,2-diol] | 29.9

More lines, now with the values ahead:

Row | EC50 [nM] | SMILES
6 | 1600 | CCCc1ccc(OC(c2cccc(Cl)c2)c2nc(-c3ccc(CNCCC(=O)O)cc3)no2)cc1 (centres unmarked) [Compound 6, 3-[(4-{5-[(3-chlorophenyl)(4-propylphenoxy)methyl]-1,2,4-oxadiazol-3-yI}benzyl)amino]propanoic acid]
7 | 1080 | CCc1ccc(OC(c2cccc(Cl)c2)c2nc(-c3ccc(CNCCC(=O)O)cc3)no2)cc1 (centres unmarked) [Compound 7, 3-[(4-{5-[(3-chlorophenyl)(4-ethylphenoxy)methyl]-1,2,4-oxadiazol-3-yI}benzyl)amino]propanoic acid]
8 | 420 | Cc1ccc(OC(c2cccc(Cl)c2)c2nc(-c3ccc(CNCCC(=O)O)cc3)no2)cc1 (centres unmarked) [Compound 8, 3-[(4-{5-[(3-chlorophenyl)(4-methylphenoxy)methyl]-1,2,4-oxadiazol-3-yl}benzyl)amino]propanoic acid]
